The values below come from patent US20120245343A1, “ARGININE DERIVATIVES OR SALTS THEREOF EXHIBITING THE EFFECTS OF IMPROVING SEXUAL FUNCTION, COMPOSITION FOR IMPROVING SEXUAL FUNCTION COMPRISING SAME, AND METHOD FOR PREPARING SAME” (priority 2009, published 2012).

For one assay, the system named is arginase. As to conditions: for Km: read-out: Km of arginase; for Km / Vmax of arginase: substrate of arginase, 55° C., 10 minutes, pH 10.0.
In a further assay the test system is cGMP. The assay can be described thus: Measurement of cGMP in penile tissues. To be noted: male Sprague-Dawley rats, FIG. 10. It is filed as in vivo. The procedure: (§1) 8 weeks old male Sprague-Dawley rats were obtained from Orient Co., Ltd. (Korea) and used as exprimental animals. A breeding cage was conditioned with artificial lighting for 12 hours (8:00 a.m. to 8:00 p.m) and maintained at 20±3° C. The rats were provided with purified water and fed with pellet diet (Samyang diet, Korea). Food and water were not limited and supplied to the rats at a certain time of 9:00 a.m. to 10:00 a.m. every day.
8 weeks old male Sprague-Dawley rats were allowed to be adapted to the environment of the breeding cage. Depending on their body weight, the rats were divided into 5 groups of control group (saline), Viagra® group (1.7 mg/kg/day), two AFG groups (200 and 400 mg/kg/day) and BGE (conventional red ginseng) group (400 mg/kg/day) and orally administered for 7 days twice a day (in the morning and in the afternoon). The amount of dietary intake was measured at a certain time of 9:00 a.m. to 10:00 a.m. every day.
After the end of feeding period, the rats were fasted for 12 hours and anesthetized with […]. […]
The concentration of cGMP was measured by a method which slightly modifies methods proposed by Park (J. Ethnopharmacol, 2004) and Knowles (Biochem. J, 1990). […]
A standard curve was created by using 0.8-50 pmol/mL of cGMP, and the concentration of cGMP was measured by cGMP ELISA kit (Aassay Designs, Inc., Michigan). […]

For another assay, the system named is nitric oxide (NO). Briefly: Measurement of nitric oxide (NO) in penile tissues. It is filed as in vivo. As to conditions: male Sprague-Dawley rats, orally administered for 7 days twice a day; AFG 200 and 400 mg/kg/day, BGE 400 mg/kg/day; vs control group; FIG. 9. The procedure: as §1
8 weeks old male Sprague-Dawley rats were allowed to be adapted to the environment of the breeding cage. Depending on their body weight, the rats were divided into 5 groups of control group (saline), Viagra® group (1.7 mg/kg/day), two AFG groups (200 and 400 mg/kg/day) and BGE (conventional red ginseng) group (400 mg/kg/day) and orally administered for 7 days twice a day (in the morning and in the afternoon). The amount of dietary intake was measured at a certain time of 9:00 a.m. to 10:00 a.m. every day. […]
The amount of the produced nitric oxide was measured by a method which slightly modifies methods proposed by Park (J. Ethnopharmacol, 2004) and Knowles (Biochem. J, 1990). […]
For 200 μL of the supernatant, the fluorescence intensity of DAF was measured at 485 nm of excitation wavelength and at 535 nm of emission wavelength using a fluorescence reader (TECAN Trading AG, Switzerland).

A further assay deals with nNOS. Briefly: Expression of nNOS in penile tissues by immunoblotting. It is filed as in vivo. To be noted: male Sprague-Dawley rats, orally administered for 7 days twice a day; AFG 200 and 400 mg/kg/day, BGE 400 mg/kg/day; vs control group; FIG. 8. The procedure: as §1
(§2) 8 weeks old male Sprague-Dawley rats were allowed to be adapted to the environment of the breeding cage. […] The amount of dietary intake was measured at a certain time of 9:00 a.m. to 10:00 a.m. every day. […]
(§3) After quickly pouring liquid nitrogen into the tissues and pulverizing the tissues, proteins were extracted by RIPA lysis buffer (pH 7.4) containing 50 mM Tris-HCl, 1% NP-40, 0.25% sodium deoxycholate, 150 mM NaCl, 1 mM EDTA, 1 mM PMSF, 1 mM sodium orthovanadate, 1 mM NaF, 1 mg/mL aprotinin, 1 mg/mL leupeptin and 1 mg/mL pepstatin. After quantifying the extracted proteins using Bio-Rad protein assay kit, 30 μg and 40 μg of proteins were separated by SDS-PAGE using 8% acrylamide gel for 2 hours, and transferred to nitrocellulose membrane with being blocked by 2% BSA. […]

In the next assay the test system is eNOS. Briefly: Expression of eNOS in penile tissues by immunoblotting. It is filed as in vivo. As to conditions: male Sprague-Dawley rats, orally administered for 7 days twice a day; AFG 200 and 400 mg/kg/day, BGE 400 mg/kg/day; vs control group; FIG. 8. The procedure: as §1, §2, §3
Another assay has as its system activated eNOS. Briefly: Expression of activated eNOS in endothelial cells. In kind it is cell-based. To be noted: immunoblotting, FIG. 11. The procedure: Endothelial cells (BAECs) previously treated with the samples were washed with cold PBS buffer (pH 7.2) twice and then treated with RIPA lysis buffer [50 mM Tris-HCl, 150 mM NaCl, 0.5% sodium deoxycholate, 1% NP 40, 1% phosphatase inhibitor cocktail, 1 mM PMSF] in 150 μL/well to collect cell extracts. The protein content of the collected cell extracts was determined using Bradford assay, and then 25 μg of the protein was separated by using SDS-PAGE and transferred to nitrocellulose membrane. The nitrocellulose membrane was blocked with 1% BSA (Bovine serum albumin) solution at room temperature for 1 hour, and reacted with a primary antibody specific for the target protein at 4° C. for 12 hours. Upon completion of the reaction, the nitrocellulose membrane was washed with TBST (10 mM Tris-HCl, 150 mM NaCl, 0.05% NP 40) several times, and reacted with a secondary antibody binding to HRP (Horse radish peroxidase) at room temperature for 1 hour. After that, the nitrocellulose membrane was washed again with TBST and the target protein was confirmed by using ECL solution. To identify the target protein, luminesent image analyzer (LAS 4000 mini) were used. […] It is possible to produce nitric oxide (NO) when eNOS is phosphorylated to be activated. […]

Description for arginase: 20 mU arginase was dissolved in 150 μL of 0.1M carbonate-bicarbonate buffer (pH 10.0). […] After that, 750 μL of acetic acid was added to the reaction mixture so as to stop the reaction. Then, 250 μL of ninhydrin solution was added to the mixture and was reacted at 100° C. for 1 hour. The reaction mixture was cooled and the absorbance was measured at 515 nm using ELISA reader.
A standard curve was created by using 0.01-10 μM of L-ornithine, and then the arginase activity was calculated and represented from the ornithine standard curve.

In the case of `NC(N)=NCCC[C@H](NC[C@@]1(O)OC[C@@H](O)[C@@H](O[C@@H]2O[C@H](CO)[C@@H](O)[C@H](O)[C@H]2O)[C@@H]1O)C(=O)O` [AFG, arginyl-fructosyl-glucose], in the assay on arginase, the “decomposition rate of arginase as compared with arginine” value is “very low”, the Michaelis constant (Km) came out at 129 µM and the Vmax of arginase was 588 µmol/min. For the same compound, the “concentration of cGMP in the penile tissues” value in the assay with cGMP (orally administered for 7 days twice a day, AFG 200 and 400 mg/kg/day, BGE 400 mg/kg/day, Viagra 1.7 mg/kg/day, vs negative control group) is “increased”. Besides, the “increase of the concentration of cGMP compared with the positive control group of Viagra” value in the assay with cGMP (penile tissues) is “less than the positive control group”. In the assay with nitric oxide (NO), the “production of nitric oxide (NO) in the penile tissues” value is “increased”. In addition, in the assay on nNOS, the “expression of nNOS in the penile tissues” value is on record as “increased”. Moreover, in the assay with eNOS, the “expression of eNOS in the penile tissues” value is “increased”. In the assay on activated eNOS, the “expression of the activated eNOS in the endothelial cells (BAECs)” value is “increased”.

`N=C(N)NCCC[C@H](N)C(=O)O` [Arginine, L-arginine]: in the assay on arginase, the Km is 12 µM and the Vmax of arginase is 1,000 μmoles/min.
